pIC50: −log10 of the molar value.
Legend:
HDAC1 = HDAC1 (Homo sapiens (Human), UniProt Q13547); conditions: read-out: HDAC1 IC50
HDAC5 = HDAC5 (Homo sapiens (Human), UniProt Q9UQL6); conditions: read-out: HDAC5 IC50
Chain of HDAC5 (Q9UQL6 656-1122): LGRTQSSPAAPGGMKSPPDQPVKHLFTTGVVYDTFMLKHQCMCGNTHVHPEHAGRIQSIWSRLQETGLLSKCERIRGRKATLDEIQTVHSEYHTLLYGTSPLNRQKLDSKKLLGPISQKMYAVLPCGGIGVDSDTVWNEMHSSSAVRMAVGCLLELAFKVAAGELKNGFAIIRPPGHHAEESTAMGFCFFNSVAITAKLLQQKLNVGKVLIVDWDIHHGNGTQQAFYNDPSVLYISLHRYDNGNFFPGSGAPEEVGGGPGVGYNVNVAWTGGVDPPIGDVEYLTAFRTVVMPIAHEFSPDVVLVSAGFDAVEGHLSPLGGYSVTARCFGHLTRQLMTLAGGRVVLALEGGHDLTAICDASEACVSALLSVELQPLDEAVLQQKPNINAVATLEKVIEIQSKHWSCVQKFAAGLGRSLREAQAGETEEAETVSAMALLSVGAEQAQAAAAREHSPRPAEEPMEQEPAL

Chain of HDAC1 (Q13547 whole entry): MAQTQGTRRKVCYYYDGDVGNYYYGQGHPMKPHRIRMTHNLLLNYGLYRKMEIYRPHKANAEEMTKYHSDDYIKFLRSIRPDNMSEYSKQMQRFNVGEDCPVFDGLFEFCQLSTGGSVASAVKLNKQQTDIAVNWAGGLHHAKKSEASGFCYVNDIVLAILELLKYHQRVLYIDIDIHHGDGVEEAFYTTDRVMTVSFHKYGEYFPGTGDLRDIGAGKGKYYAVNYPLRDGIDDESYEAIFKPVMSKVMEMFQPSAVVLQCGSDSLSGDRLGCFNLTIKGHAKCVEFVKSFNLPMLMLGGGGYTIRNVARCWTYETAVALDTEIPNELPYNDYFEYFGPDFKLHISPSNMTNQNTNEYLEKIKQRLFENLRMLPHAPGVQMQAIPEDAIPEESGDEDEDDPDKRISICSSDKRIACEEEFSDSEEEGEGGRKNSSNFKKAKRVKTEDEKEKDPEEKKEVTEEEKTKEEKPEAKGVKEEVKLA

SMILES	pIC50 (HDAC1)	pIC50 (HDAC5)
CCNC(=O)NC(Cc1ccc(-c2noc(C(F)(F)F)n2)cn1)c1cccc(C(F)(F)F)c1 (stereo not drawn) [Example 179, 1-Ethyl-3-(2-(5-(5-(trifluoromethyl)-1,2,4-oxadiazol-3-yl)pyridin-2-yl)-1-(3-(trifluoromethyl)phenyl)ethyl)urea]	6.47	6.41
COC(=O)NC(Cc1ccc(-c2noc(C(F)(F)F)n2)cn1)c1cccc(C(F)(F)F)c1 (stereo not drawn) [Example 180]	6.19	6.19
Fc1ccccc1OCc1cc(-c2noc(C(F)(F)F)n2)ccn1 [Example 250, 2-[(2-fluorophenoxy)methyl]-4-[5-(trifluoromethyl)-1,2,4-oxadiazol-3-yl]pyridine]	5.51	6.04
Fc1cc(COc2cccnn2)ccc1-c1noc(C(F)(F)F)n1 [Example 257, 3-({3-fluoro-4-[5-(trifluoromethyl)-1,2,4-oxadiazol-3-yl]phenyl}methoxy)pyridazine]	5.19	6.70
COc1cncc(OCc2ccc(-c3noc(C(F)(F)F)n3)c(F)c2)c1 [Example 258, 3-({3-fluoro-4-[5-(trifluoromethyl)-1,2,4-oxadiazol-3-yl]phenyl}methoxy)-5-methoxypyridine]	5.92	6.82
Fc1cc(COc2cnc3[nH]ccc3c2)ccc1-c1noc(C(F)(F)F)n1 [Example 259, 5-({3-fluoro-4-[5-(trifluoromethyl)-1,2,4-oxadiazol-3-yl]phenyl}methoxy)-1H-pyrrolo[2,3-b]pyridine]	5.38	7.08
Fc1ccc(OCc2ccc(-c3noc(C(F)(F)F)n3)c(F)c2)cn1 [Example 260, 2-fluoro-5-({3-fluoro-4-[5-(trifluoromethyl)-1,2,4-oxadiazol-3-yl]phenyl}methoxy)pyridine]	4.92	6.92
Fc1ccc2ccc(OCc3ccc(-c4noc(C(F)(F)F)n4)c(F)c3)nc2n1 [Example 261, 2-fluoro-7-({3-fluoro-4-[5-(trifluoromethyl)-1,2,4-oxadiazol-3-yl]phenyl}methoxy)-1,8-naphthyridine]	6.07	7.62
Fc1cc(COc2nnnc3ccccc23)ccc1-c1noc(C(F)(F)F)n1 [Example 262, 4-({3-fluoro-4-[5-(trifluoromethyl)-1,2,4-oxadiazol-3-yl]phenyl}methoxy)-1,2,3-benzotriazine]	5.54	6.92
Cc1ccc(OCc2ccc(-c3noc(C(F)(F)F)n3)c(F)c2)nn1 [Example 263, 3-({3-fluoro-4-[5-(trifluoromethyl)-1,2,4-oxadiazol-3-yl]phenyl}methoxy)-6-methylpyridazine]	5.28	6.62
NC(=O)c1cccc(OCc2ccc(-c3noc(C(F)(F)F)n3)c(F)c2)c1 [Example 264, 3-({3-fluoro-4-[5-(trifluoromethyl)-1,2,4-oxadiazol-3-yl]phenyl}methoxy)benzamide]	5.66	7.05
Fc1cc(COc2cccc3c2CNCC3)ccc1-c1noc(C(F)(F)F)n1 [Example 265, 8-({3-fluoro-4-[5-(trifluoromethyl)-1,2,4-oxadiazol-3-yl]phenyl}methoxy)-1,2,3,4-tetrahydroisoquinoline]	5.25	6.55
Cc1ccnnc1OCc1ccc(-c2noc(C(F)(F)F)n2)c(F)c1 [Example 266, 3-({3-fluoro-4-[5-(trifluoromethyl)-1,2,4-oxadiazol-3-yl]phenyl}methoxy)-4-methylpyridazine]	5.18	6.60
NCc1cccc(OCc2ccc(-c3noc(C(F)(F)F)n3)c(F)c2)c1 [Example 267, 1-[3-({3-fluoro-4-[5-(trifluoromethyl)-1,2,4-oxadiazol-3-yl]phenyl}methoxy)phenyl]methanamine]	5.96	6.70
Fc1cc(COc2nccc3nccn23)ccc1-c1noc(C(F)(F)F)n1 [Example 268, 5-({3-fluoro-4-[5-(trifluoromethyl)-1,2,4-oxadiazol-3-yl]phenyl}methoxy)imidazo[1,2-c]pyrimidine]	5.54	6.92
Cc1cncc(OCc2ccc(-c3noc(C(F)(F)F)n3)c(F)c2)c1 [Example 269, 3-({3-fluoro-4-[5-(trifluoromethyl)-1,2,4-oxadiazol-3-yl]phenyl}methoxy)-5-methylpyridine]	5.15	6.30
NCc1ccccc1OCc1ccc(-c2noc(C(F)(F)F)n2)c(F)c1 [Example 270, 1-[2-({3-fluoro-4-[5-(trifluoromethyl)-1,2,4-oxadiazol-3-yl]phenyl}methoxy)phenyl]methanamine]	5.64	6.80
Fc1cc(COc2cccc3[nH]ncc23)ccc1-c1noc(C(F)(F)F)n1 [Example 271, 4-({3-fluoro-4-[5-(trifluoromethyl)-1,2,4-oxadiazol-3-yl]phenyl}methoxy)-1H-indazole]	5.43	7.07

SMILES	pIC50 (HDAC1)	pIC50 (HDAC5)
Fc1cc(COc2nc3cccnc3n2C2CC2)ccc1-c1noc(C(F)(F)F)n1 [Example 272, 3-cyclopropyl-2-({3-fluoro-4-[5-(trifluoromethyl)-1,2,4-oxadiazol-3-yl]phenyl}methoxy)-3H-imidazo[4,5-b]pyridine]	6.20	7.51
Cn1c(OCc2ccc(-c3noc(C(F)(F)F)n3)c(F)c2)nc2ncccc21 [Example 273, 2-({3-fluoro-4-[5-(trifluoromethyl)-1,2,4-oxadiazol-3-yl]phenyl}methoxy)-1-methyl-1H-imidazo[4,5-b]pyridine]	6.14	7.55
Cc1ncc(OCc2ccc(-c3noc(C(F)(F)F)n3)c(F)c2)cn1 [Example 274, 5-({3-fluoro-4-[5-(trifluoromethyl)-1,2,4-oxadiazol-3-yl]phenyl}methoxy)-2-methylpyrimidine]	5.40	6.80
COc1ccc2cc(OCc3ccc(-c4noc(C(F)(F)F)n4)c(F)c3)nnc2c1 [Example 275, 3-({3-fluoro-4-[5-(trifluoromethyl)-1,2,4-oxadiazol-3-yl]phenyl}methoxy)-7-methoxycinnoline]	6.07	7.06
Fc1cc(COc2cnc(C3CC3)nc2)ccc1-c1noc(C(F)(F)F)n1 [Example 276, 2-cyclopropyl-5-({3-fluoro-4-[5-(trifluoromethyl)-1,2,4-oxadiazol-3-yl]phenyl}methoxy)pyrimidine]	5.82	6.92
Fc1cc(COc2nc3ncccc3n2CC(F)(F)F)ccc1-c1noc(C(F)(F)F)n1 [Example 277, 2-({3-fluoro-4-[5-(trifluoromethyl)-1,2,4-oxadiazol-3-yl]phenyl}methoxy)-1-(2,2,2-trifluoroethyl)-1H-imidazo[4,5-b]pyridine]	5.70	6.89
Fc1cc(COc2nc3cccnc3n2CC(F)(F)F)ccc1-c1noc(C(F)(F)F)n1 [Example 278, 2-({3-fluoro-4-[5-(trifluoromethyl)-1,2,4-oxadiazol-3-yl]phenyl}methoxy)-3-(2,2,2-trifluoroethyl)-3H-imidazo[4,5-b]pyridine]	6.11	7.07
COc1ncc(OCc2ccc(-c3noc(C(F)(F)F)n3)c(F)c2)cn1 [Example 279, 5-({3-fluoro-4-[5-(trifluoromethyl)-1,2,4-oxadiazol-3-yl]phenyl}methoxy)-2-methoxypyrimidine]	6.12	7.16
Fc1cc(COc2nnc(C3CC3)o2)ccc1-c1noc(C(F)(F)F)n1 [Example 280, 3-(4-{[(5-cyclopropyl-1,3,4-oxadiazol-2-yl)oxy]methyl}-2-fluorophenyl)-5-(trifluoromethyl)-1,2,4-oxadiazole]	5.66	6.72
Cc1csc(OCc2ccc(-c3noc(C(F)(F)F)n3)c(F)c2)n1 [Example 281, 3-(2-fluoro-4-{[(4-methyl-1,3-thiazol-2-yl)oxy]methyl}phenyl)-5-(trifluoromethyl)-1,2,4-oxadiazole]	5.57	7.52
Fc1cc(COc2ccc3cccc(F)c3n2)ccc1-c1noc(C(F)(F)F)n1 [Example 282, 8-fluoro-2-({3-fluoro-4-[5-(trifluoromethyl)-1,2,4-oxadiazol-3-yl]phenyl}methoxy)quinoline]	6.14	8.15
Fc1cc(F)c(OCc2ccc(-c3noc(C(F)(F)F)n3)c(F)c2)cn1 [Example 283, 2,4-difluoro-5-({3-fluoro-4-[5-(trifluoromethyl)-1,2,4-oxadiazol-3-yl]phenyl}methoxy)pyridine]	4.35	7.12
CNC(=O)c1ccccc1OCc1ccc(-c2noc(C(F)(F)F)n2)c(F)c1 [Example 284, 2-({3-fluoro-4-[5-(trifluoromethyl)-1,2,4-oxadiazol-3-yl]phenyl}methoxy)-N-methylbenzamide]	5.66	6.59
Fc1cc(COc2ccc3cncnc3c2)ccc1-c1noc(C(F)(F)F)n1 [Example 285, 7-({3-fluoro-4-[5-(trifluoromethyl)-1,2,4-oxadiazol-3-yl]phenyl}methoxy)quinazoline]	5.47	6.55
Fc1cc(COc2cccc(Cl)n2)ccc1-c1noc(C(F)(F)F)n1 [Example 286, 2-chloro-6-({3-fluoro-4-[5-(trifluoromethyl)-1,2,4-oxadiazol-3-yl]phenyl}methoxy)pyridine]	5.57	7.30
Fc1cc(COc2cncc(Cl)c2)ccc1-c1noc(C(F)(F)F)n1 [Example 287, 3-chloro-5-({3-fluoro-4-[5-(trifluoromethyl)-1,2,4-oxadiazol-3-yl]phenyl}methoxy)pyridine]	5.74	6.82
Fc1cc(COc2ccc(Cl)nc2)ccc1-c1noc(C(F)(F)F)n1 [Example 288, 2-chloro-5-({3-fluoro-4-[5-(trifluoromethyl)-1,2,4-oxadiazol-3-yl]phenyl}methoxy)pyridine]	4.35	6.55
Cn1ccc(COc2nccc(-c3noc(C(F)(F)F)n3)c2Cl)n1 [Example 289, 3-chloro-2-[(1-methyl-1H-pyrazol-3-yl)methoxy]-4-[5-(trifluoromethyl)-1,2,4-oxadiazol-3-yl]pyridine]	5.08	6.17

Source: patent publication US11066396B2 (priority 2016, dated 2021)
